Data reported in patent publication US20040073277A1, “High fluence rate activation of photosensitizers for dermatological applications” (priority 2002, published 2004).
Like-named read-outs stand apart in the source and are kept apart here.

Key:
acne [1] = details: 20% ALA for 3 hours on the back; broadband lamp 550 to 700 nm, 150 J/cm^2; cited from earlier work
[2] = system: photoaged or wrinkled skin; details: following ALA-PDT; cited from earlier work
actinic keratoses [3] = assay: ALA-PDT of lesional skin with pulsed dye laser below the purpura threshold; assay type: in vivo, human
Method: The present invention is generally directed to a method for activation of photodynamic sensitizers in dermatologic application.
The pulsed dye laser was operated below the purpura threshold of the skin at a fluence of about 3.0 to about 7.5 J/cm^2. […] Treatment was performed and successful with and without surface cooling. Surface cooling provided epidermal protection and additional pain reduction.

actinic keratoses [4] = details: irradiation 4 hours after ALA, 580 to 740 nm lamp, 20 J/cm^2; cited from earlier work
acne [5] = details: red light from a halogen lamp, 13 J/cm^2; cited from earlier work
hair follicles = details: photodynamic injury to hair follicles; cited from earlier work
actinic keratoses [6] = details: cited from earlier work
[7] = actinic keratoses, pulsed dye laser 595 nm below purpura threshold
[8] = 20% ALA for 6 hours, 585 nm, 1.5 milliseconds, 18 J/cm^2

- purpura (actinic keratoses [3]; [7]): without purpura
SMILES: NCC(=O)CCC(=O)O [ALA, 5-Aminolevulinic acid]
- acne response (acne [1]): improved
- side effects (acne [1]): erythema, edema, exfoliation, and long-lasting hyperpigmentation
- photoaged or wrinkled skin [2]: improve
- treatment outcome of the lesion (actinic keratoses [3]; ALA applied to lesional skin, pulsed dye laser 595 nm, pulse duration 3 to 40 milliseconds, fluence about 3.0 to about 7.5 J/cm^2): successfully treated
- pain, crusting and erosions of treated lesions (actinic keratoses [3]; [7]): reduction in pain and in crusting and erosions
- efficacy compared with conventional ALA-PDT (actinic keratoses [3]; pulsed light source): efficacy equivalent to conventional ALA-PDT
- side effects compared with conventional ALA-PDT (actinic keratoses [3]; pulsed light source): fewer and minimal side effects
- side effects (actinic keratoses [4]): erythema and skin erosions occurred
- side effects (acne [5]): edematous erythema, epidermal exfoliation and irritation lasting several days, and pigmentation changes
- therapeutic response (acne [5]): excellent therapeutic response
- time for treated skin to return to normal (acne [5]): one month
- excessive or unwanted hair (hair follicles): reduced
- efficacy of pulsed dye laser versus conventional lamp (actinic keratoses [6]; [8]): similar
- pain with pulsed dye laser versus conventional lamp (actinic keratoses [6]; [8]): significantly lower
- duration of purpura after treatment (actinic keratoses [6]; pulsed dye laser only, 585 nm, 1.5 milliseconds, 18 J/cm^2): up to two weeks
- duration of erythema and crusting after treatment (actinic keratoses [6]; similar for pulsed dye laser and conventional lamp): up to two weeks
